US10501421B1, “Substituted benzimidazoles as modulators of Ras signaling” (VANDERBILT UNIVERSITY, priority 2017, dated 2019)
pEC50, pIC50, pKi: −log10 of the molar value. Counter-ions that a name gives are not always drawn. Like-named read-outs stand apart in the source and are kept apart here.

Experiments:
[1] = system: H727 lung cancer cell lines (G12V K-Ras mutation); assay: Inhibition of cancer cell proliferation (CellTiter-Glo); type: cell-based; settings: Homo sapiens, NCI-H727, 72 h, read-out: Cell proliferation activity (H727 cancer cell line proliferation IC50)
Experimental: Compounds of the present invention were measured for their ability to kill H727 lung cancer cell lines, which contain a G12V K-Ras mutation. Cell proliferation experiments were conducted in 96-well plates. Cells were plated at 1000 cells/well, incubated overnight, followed by treatment with a dose range of compound for 3 days at 37° C. Cell proliferation was assessed using a CellTiter-Glo assay (Promega) according to the manufacturer's protocol. Data were normalized to DMSO control. IC50 values were determined using a four-parameter dose-response (variable slope) equation. These assays are performed in a manner analogous to the assay disclosed in: Burns, M. C.; Sun, Q.; Daniels, R. N.; Camper, D. V.; Kennedy, J. P.; Phan, J.; Olejniczak, E. O.; Lee, T.; Waterson, A. G.; Rossanese, O. W.; Fesik, S. W. “Approach for targeting Ras with small molecules that activate SOS-mediated nucleotide exchange” Proc. Natl. Acad. Sci. 2014; 11(9): 3401-3406. PMCID: PMC3948241.

[2] = biological target: Ras GEF SOS (Son of Sevenless) (Homo sapiens, UniProt Q07889); assay: SOS-mediated nucleotide exchange on Ras (BODIPY-GDP fluorescence); type: biochemical; settings: SOS-mediated exchange of BODIPY-GDP for GTP on Ras
How it was run: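 Exchange rates were taken from single-exponential fits of the fluorescence time course as BODIPY-GDP on Ras was replaced by GTP. Compound went in first, then GTP and SOS. Mean rates plotted against concentration gave EC50 by four-parameter dose-response fitting.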

[3] = biological target: T1, Son of Sevenless (SOS) (Homo sapiens, UniProt Q07889); assay: Binding to SOS, fluorescence polarization anisotropy (FPA) probe displacement; settings: displacement of FITC-conjugated probe (Example 285), affinity calculated from IC50
T1 sequence (Q07889 564-1049 limits assumed): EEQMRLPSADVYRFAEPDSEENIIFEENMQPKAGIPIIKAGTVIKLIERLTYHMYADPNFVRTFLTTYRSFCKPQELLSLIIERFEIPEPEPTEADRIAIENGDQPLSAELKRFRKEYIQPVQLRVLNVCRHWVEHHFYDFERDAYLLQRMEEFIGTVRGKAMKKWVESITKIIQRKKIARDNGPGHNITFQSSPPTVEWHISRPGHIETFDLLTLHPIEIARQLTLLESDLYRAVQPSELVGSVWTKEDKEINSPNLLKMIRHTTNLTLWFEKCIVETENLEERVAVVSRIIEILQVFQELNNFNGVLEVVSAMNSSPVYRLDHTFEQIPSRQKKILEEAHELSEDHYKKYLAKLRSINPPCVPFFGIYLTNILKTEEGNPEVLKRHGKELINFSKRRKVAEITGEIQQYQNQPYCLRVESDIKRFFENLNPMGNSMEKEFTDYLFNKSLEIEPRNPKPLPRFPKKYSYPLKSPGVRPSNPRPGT
How it was run: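 Test compounds were titrated against SOS pre-bound to a fluorescein-labelled probe, with anisotropy plotted versus compound concentration. Binding affinities were derived from IC50 values obtained by four-parameter dose-response fitting.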

[4] = H727 cells, 3 days treatment, CellTiter-Glo

Chain of Ras GEF SOS (Son of Sevenless) (P01112 1-166 partner limits assumed, one chain of several): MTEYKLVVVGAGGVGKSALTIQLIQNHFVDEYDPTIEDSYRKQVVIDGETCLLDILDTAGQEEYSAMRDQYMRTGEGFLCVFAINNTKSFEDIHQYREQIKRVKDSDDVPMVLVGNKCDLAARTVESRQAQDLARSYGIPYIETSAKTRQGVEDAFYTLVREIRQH

Row | SMILES | pIC50 [1] | pEC50 [2] | pKi [3] | pIC50 [1, 4]
1 | Cc1cc(-c2ccccc2C)c2nc(N3CCNCC3)n(Cc3ccc(F)c(Cl)c3)c2c1 [Example 120, 1-(3-chloro-4-fluorobenzyl)-6-methyl-2-(piperazin-1-yl)-4-(o-tolyl)-1H-benzo[d]imidazole trifluoroacetate] | 5.30 to 6.00 | 5.30 to 6.00 | > 6.30 | –
2 | CNCc1cc(Cl)cc2c1nc(N1CCNCC1)n2Cc1cc(C)c(F)c(C)c1 [Example 129, 1-(6-chloro-1-(4-fluoro-3,5-dimethylbenzyl)-2-(piperazin-1-yl)-1H-benzo[d]imidazol-4-yl)-N-methylmethanamine trifluoroacetate] | 5.30 to 6.00 | > 6.00 | > 6.30 | –
3 | C=C[C@H](N)c1cc(C)cc2c1nc(N1CCNCC1)n2Cc1cc(C)c(F)c(C)c1 [Example 162, (S)-1-(1-(4-fluoro-3,5-dimethylbenzyl)-6-methyl-2-(piperazin-1-yl)-1H-benzo[d]imidazol-4-yl)prop-2-en-1-amine trifluoroacetate] | 5.30 to 6.00 | 5.30 to 6.00 | 5.30 to 6.00 | –
4 | Fc1ccc(Cn2c(N3CCNCC3)nc3c(-c4cccnc4)cccc32)cc1Cl [Example 89, 1-(3-chloro-4-fluorobenzyl)-2-(piperazin-1-yl)-4-(pyridin-3-yl)-1H-benzo[d]imidazole] | – | 5.30 to 6.00 | 5.30 to 6.00 | 4.70 to 5.30
5 | Cc1cc(-c2ccccc2Cl)c2nc(N3CCNCC3)n(Cc3cc(C)c(F)c(C)c3)c2c1 [Example 267, 4-(2-chlorophenyl)-1-[(4-fluoro-3,5-dimethylphenyl)methyl]-6-methyl-2-piperazin-1-ylbenzimidazole] | – | > 6.00 | > 6.30 | 5.30 to 6.00
6 | Cc1cc(CN(C)C)c2nc(N3CCNCC3)n(Cc3cc(C)c(F)c(C)c3)c2c1 [Example 128, 1-(1-(4-fluoro-3,5-dimethylbenzyl)-6-methyl-2-(piperazin-1-yl)-1H-benzo[d]imidazol-4-yl)-N,N-dimethylmethanamine trifluoroacetate] | 5.30 to 6.00 | > 6.00 | 6.00 to 6.30 | –
7 | Cc1cc(CN2CCCC2)c2nc(N3CCNCC3)n(Cc3cc(C)c(F)c(C)c3)c2c1 [Example 124, 1-(4-fluoro-3,5-dimethylbenzyl)-6-methyl-2-(piperazin-1-yl)-4-(pyrrolidin-1-ylmethyl)-1H-benzo[d]imidazole trifluoroacetate] | 5.30 to 6.00 | > 6.00 | 5.30 to 6.00 | –
8 | Cc1cc2nc(N3CCNCC3)n(Cc3ccc(F)c(C4CC4)c3)c2cc1C [Example 51, 1-(3-cyclopropyl-4-fluorobenzyl)-5,6-dimethyl-2-(piperazin-1-yl)-1H-benzo[d]imidazole trifluoroacetate] | 5.30 to 6.00 | 4.52 to 5.30 | < 5.30 | –
9 | Cc1cc(CN2CCOCC2)c2nc(N3CCNCC3)n(Cc3cc(C)c(F)c(C)c3)c2c1 [Example 127, 4-((1-(4-fluoro-3,5-dimethylbenzyl)-6-methyl-2-(piperazin-1-yl)-1H-benzo[d]imidazol-4-yl)methyl)morpholine trifluoroacetate] | 5.30 to 6.00 | 5.30 to 6.00 | 5.30 to 6.00 | –
10 | Cc1cc(Cn2c(N3CC(CN)C3)nc3ccc(OC(C)C(F)(F)F)nc32)ccc1F (stereo not shown) [Example 259, (1-(3-(4-fluoro-3-methylbenzyl)-5-((1,1,1-trifluorpropan-2-yl)oxy)-3H-imidazo[4,5-b]pyridin-2-yl)azetidin-3-yl)methanamine] | – | 4.52 to 5.30 | < 5.30 | > 6.00
11 | C=Cc1cc(Cn2c(N3CCNCC3)nc3cc(C)c(C)cc32)ccc1F [Example 52, 1-(4-fluoro-3-vinylbenzyl)-5,6-dimethyl-2-(piperazin-1-yl)-1H-benzo[d]imidazole trifluoroacetate] | < 4.70 | 4.52 to 5.30 | < 5.30 | –
12 | Cc1cc2c(nc(NCCN)n2Cc2ccc(F)c(Cl)c2)c(-c2ccccc2Cl)c1C [Example 113, N^1-(1-(3-chloro-4-fluorobenzyl)-4-(2-chlorophenyl)-5,6-dimethyl-1H-benzo[d]imidazol-2-yl)ethane-1,2-diamine trifluoroacetate] | 5.30 to 6.00 | 5.30 to 6.00 | > 6.30 | –
13 | Cc1cc2c(nc(N3CCNCC3)n2Cc2ccc(F)c(Cl)c2)c(-c2ccc(CN)cc2)c1C [Example 108, (4-(1-(3-chloro-4-fluorobenzyl)-5,6-dimethyl-2-(piperazin-1-yl)-1H-benzo[d]imidazol-4-yl)phenyl)methanamine trifluoroacetate] | 5.30 to 6.00 | > 6.00 | 6.00 to 6.30 | –
14 | Cc1cc2c(nc(N3CCNCC3)n2Cc2ccc(Cl)cc2)c(-c2ccccc2Cl)c1C [Example 106, 1-(4-chlorobenzyl)-4-(2-chlorophenyl)-5,6-dimethyl-2-(piperazin-1-yl)-1H-benzo[d]imidazole trifluoroacetate] | 5.30 to 6.00 | 5.30 to 6.00 | 5.30 to 6.00 | –
15 | Cc1cc(CN2CCC(O)CC2)c2nc(N3CCNCC3)n(Cc3cc(C)c(F)c(C)c3)c2c1 [Example 126, 1-((1-(4-fluoro-3,5-dimethylbenzyl)-6-methyl-2-(piperazin-1-yl)-1H-benzo[d]imidazol-4-yl)methyl)piperidin-4-ol trifluoroacetate] | 5.30 to 6.00 | 5.30 to 6.00 | 5.30 to 6.00 | –
16 | Cc1cc2c(nc(N3CCNCC3)n2Cc2cc(C)c(F)c(C)c2)c(CO)c1C [Example 138, (1-(4-fluoro-3,5-dimethylbenzyl)-5,6-dimethyl-2-(piperazin-1-yl)-1H-benzo[d]imidazol-4-yl)methanol trifluoroacetate] | 4.70 to 5.30 | 5.30 to 6.00 | – | –
17 | Cc1cc(CNCC(C)C)c2nc(N3CCNCC3)n(Cc3cc(C)c(F)c(C)c3)c2c1 [Example 133, N-((1-(4-fluoro-3,5-dimethylbenzyl)-6-methyl-2-(piperazin-1-yl)-1H-benzo[d]imidazol-4-yl)methyl)-2-methylpropan-1-amine trifluoroacetate] | 5.30 to 6.00 | 5.30 to 6.00 | – | –
18 | C=C[C@H](N)c1cc(Cl)cc2c1nc(N1CCNCC1)n2Cc1cc(C)c(F)c(C)c1 [Example 155, (S)-1-(6-chloro-1-(4-fluoro-3,5-dimethylbenzyl)-2-(piperazin-1-yl)-1H-benzo[d]imidazol-4-yl)prop-2-en-1-amine trifluoroacetate] | > 6.00 | > 6.00 | – | –
19 | CCNCc1c(C)c(C)cc2c1nc(N1CCNCC1)n2Cc1cc(C)c(F)c(C)c1 [Example 131, N-((1-(4-fluoro-3,5-dimethylbenzyl)-5,6-dimethyl-2-(piperazin-1-yl)-1H-benzo[d]imidazol-4-yl)methyl)ethanamine trifluoroacetate] | > 6.00 | 5.30 to 6.00 | – | –
20 | Cc1ccccc1-c1cccc2c1nc(N1CCNCC1)n2Cc1ccc(F)c(Cl)c1 [Example 79, 1-(3-chloro-4-fluorobenzyl)-2-(piperazin-1-yl)-4-(o-tolyl)-1H-benzo[d]imidazole trifluoroacetate] | 4.70 to 5.30 | 5.30 to 6.00 | – | –
21 | CC[C@H](N)c1cc(Cl)cc2c1nc(N1CCNCC1)n2Cc1cc(C)c(F)c(C)c1 [Example 157, (S)-1-(6-chloro-1-(4-fluoro-3,5-dimethylbenzyl)-2-(piperazin-1-yl)-1H-benzo[d]imidazol-4-yl)propan-1-amine trifluoroacetate] | 5.30 to 6.00 | > 6.00 | – | –
22 | CC[C@H](N)c1cc(Cl)cc2c1nc(NCCN)n2Cc1cc(C)c(F)c(C)c1 [Example 158, (S)—N^1-(4-(1-aminopropyl)-6-chloro-1-(4-fluoro-3,5-dimethylbenzyl)-1H-benzo[d]imidazol-2-yl)ethane-1,2-diamine trifluoroacetate] | 4.70 to 5.30 | 5.30 to 6.00 | – | –
23 | Cc1cc(-c2cccc3c2nc(N2CCNCC2)n3Cc2ccc(C(F)(F)F)cc2)nn1C [Example 96, 4-(1,5-dimethyl-1H-pyrazol-3-yl)-2-(piperazin-1-yl)-1-(4-(trifluoromethyl)benzyl)-1H-benzo[d]imidazole] | – | 5.30 to 6.00 | – | 5.30 to 6.00
